Source: PMC2131784, “Inhibition of Chk1 Kills Tetraploid Tumor Cells through a p53-Dependent Pathway” (PLoS ONE, 2007)

Molecular target: T1, Chk1 (checkpoint kinase-1) (Homo sapiens, UniProt O14757)
T1 construct: gene CHEK1; recombinant Chk1
T1 sequence (O14757 1-476): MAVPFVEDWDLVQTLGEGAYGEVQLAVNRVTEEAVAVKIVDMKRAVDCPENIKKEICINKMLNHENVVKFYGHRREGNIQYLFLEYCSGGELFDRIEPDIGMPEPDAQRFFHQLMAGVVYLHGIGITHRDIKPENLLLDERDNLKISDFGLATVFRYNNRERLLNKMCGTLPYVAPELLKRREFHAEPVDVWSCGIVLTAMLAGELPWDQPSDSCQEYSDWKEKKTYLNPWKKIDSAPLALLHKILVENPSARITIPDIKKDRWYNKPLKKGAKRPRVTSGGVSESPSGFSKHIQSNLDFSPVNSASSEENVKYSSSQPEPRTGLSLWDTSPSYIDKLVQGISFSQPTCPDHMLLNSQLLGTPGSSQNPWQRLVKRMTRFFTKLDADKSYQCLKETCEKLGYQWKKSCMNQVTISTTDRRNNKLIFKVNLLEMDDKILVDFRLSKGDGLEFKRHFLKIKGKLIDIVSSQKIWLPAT
Test: in vitro inhibition of recombinant Chk1 (assay details not given)
Type: biochemical

IC50: 29 nM
Substance: SD1825
